Measured values as given in paper PMC3365763 (The Journal of Biological Chemistry, 2012).
Positions count from the first letter of the chain named.

Legend:
Format in all cases: biochemical
[1] = target: T1, TG2 (transglutaminase-2, transglutaminase type 2) (Homo sapiens, UniProt P21980, R28S)
T1 sequence (P21980 1-687 R28S): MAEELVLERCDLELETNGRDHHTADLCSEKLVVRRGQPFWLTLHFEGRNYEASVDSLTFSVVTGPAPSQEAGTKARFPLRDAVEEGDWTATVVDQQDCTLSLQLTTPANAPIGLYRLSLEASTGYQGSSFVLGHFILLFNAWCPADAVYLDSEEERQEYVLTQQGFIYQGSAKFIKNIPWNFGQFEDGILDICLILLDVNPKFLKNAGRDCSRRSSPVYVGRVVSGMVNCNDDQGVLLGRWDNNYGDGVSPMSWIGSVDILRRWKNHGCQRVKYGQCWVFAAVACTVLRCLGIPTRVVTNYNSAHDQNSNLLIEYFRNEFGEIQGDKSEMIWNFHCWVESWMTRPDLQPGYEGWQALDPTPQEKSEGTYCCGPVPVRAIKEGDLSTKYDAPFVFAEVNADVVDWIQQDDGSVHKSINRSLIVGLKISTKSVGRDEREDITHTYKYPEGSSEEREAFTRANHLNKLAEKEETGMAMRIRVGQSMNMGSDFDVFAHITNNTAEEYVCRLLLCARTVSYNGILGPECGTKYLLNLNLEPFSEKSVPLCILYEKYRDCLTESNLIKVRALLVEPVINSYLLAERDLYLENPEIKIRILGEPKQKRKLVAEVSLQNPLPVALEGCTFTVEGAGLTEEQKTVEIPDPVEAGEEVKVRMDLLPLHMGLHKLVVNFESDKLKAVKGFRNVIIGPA

[2] = target: T2, TG2 (transglutaminase-2, transglutaminase type 2) (Homo sapiens, UniProt P21980, R19S)
T2 sequence (P21980 1-687 R19S): T1 sequence (P21980 1-687 R28S) with R19S, S28R

[3] = target: T3, TG2 (transglutaminase-2, transglutaminase type 2) (Homo sapiens, UniProt P21980, R263S)
T3 sequence (P21980 1-687 R263S): T1 sequence (P21980 1-687 R28S) with S28R, R263S

[4] = target: T4, TG2 (transglutaminase-2, transglutaminase type 2) (Homo sapiens, UniProt P21980)
T4 sequence (P21980 1-687): T1 sequence (P21980 1-687 R28S) with S28R

`Nc1nc2c(ncn2[C@@H]2O[C@H](COP(=O)(O)OP(=O)(O)OP(=O)(O)O)[C@@H](O)[C@H]2O)c(=O)[nH]1` [GTP] gave an IC50 [1] of 64 ± 27 µM, an IC50 [2] of 254 ± 8 µM and an IC50 [3] of 79 ± 15 µM. For the same compound, the IC50 [4] was 142 ± 24 µM.
